Assay results taken from ChEMBL document CHEMBL1141132, “6-[1-(2,6-difluorophenyl)ethyl]pyrimidinones antagonize cell proliferation and induce cell differentiation by inhibiting (a nontelomeric) endogenous reverse transcriptase” (2005).

Columns and labels:
[1] = test system: A-375; test: Effect on alive human A-375 cell death treated with DMSO(control) at a concentration of 25 uM; type: functional
[2] = test system: A-375; test: Effect on necrotic human A-375 cell death treated with DMSO(control) at a concentration of 10 uM; type: functional
[3] = test system: A-375; test: Effect on alive human A-375 cell death treated with DMSO(control) at a concentration of 40 uM; type: functional
[4] = test system: A-375; test: Percentage inhibition of proliferation against alive human A-375 cells treated with DMSO (control) at a concentration of 40 uM; type: functional
[5] = test system: A-375; test: Effect on apoptotic human A-375 cell death treated with DMSO(control) at a concentration of 50 uM; type: functional
[6] = test system: A-375; test: Percentage inhibition of proliferation against alive human A-375 cells treated with DMSO (control) at a concentration of 50 uM; type: functional
[7] = test system: A-375; test: Percentage of alive human A-375 cells relative to DMSO-treated control at a concentration of 25 uM
[8] = test system: A-375; test: Percentage of alive human A-375 cells relative to DMSO-treated control at a concentration of 10 uM
[9] = test system: A-375; test: Effect on alive human A-375 cell death treated with DMSO(control) at a concentration of 10 uM; type: functional
[10] = test system: A-375; test: Effect on apoptotic human A-375 cell death treated with DMSO(control) at a concentration of 10 uM; type: functional
[11] = test system: A-375; test: Effect on necrotic human A-375 cell death treated with DMSO(control) at a concentration of 50 uM; type: functional
[12] = test system: A-375; test: Effect on apoptotic human A-375 cell death treated with DMSO(control) at a concentration of 25 uM; type: functional
[13] = test system: A-375; test: Effect on necrotic human A-375 cell death treated with DMSO(control) at a concentration of 40 uM; type: functional
[14] = test system: A-375; test: Effect on alive human A-375 cell death treated with DMSO(control) at a concentration of 50 uM; type: functional
[15] = test system: A-375; test: Effect on necrotic human A-375 cell death treated with DMSO(control) at a concentration of 25 uM; type: functional
[16] = test system: A-375; test: Effect on apoptotic human A-375 cell death treated with DMSO(control) at a concentration of 40 uM; type: functional
[17] = test system: A-375; test: Percentage inhibition of proliferation against alive human A-375 cells treated with DMSO (control) at a concentration of 350 uM; type: functional
[18] = test system: A-375; test: Percentage of alive human A-375 cells relative to DMSO-treated control at a concentration of 15 uM

| Structure (SMILES) | Activity [1] [%] | Activity [2] [%] | Activity [3] [%] | inhibition at 40 µM [4] [%] | Activity [5] [%] | inhibition at 50 µM [6] [%] | alive cells at 25 µM [7] [%] | alive cells at 10 µM [8] [%] | Activity [9] [%] | Activity [10] [%] | Activity [11] [%] | Activity [12] [%] | Activity [13] [%] | Activity [14] [%] | Activity [15] [%] | Activity [16] [%] | inhibition at 350 µM [17] [%] | alive cells at 15 µM [18] [%] |
| --- | --- | --- | --- | --- | --- | --- | --- | --- | --- | --- | --- | --- | --- | --- | --- | --- | --- | --- |
| Cc1c(C(C)c2c(F)cccc2F)nc(SC2CCCC2)[nH]c1=O (centres undefined) | 96.4 | 1 | 98.7 | 65 | 12.8 | 14 | 72 | 77 | 96.7 | 2.3 | 7.2 | 2.6 | 0.3 | 80 | 1 | 1 |  |  |
| Cc1ccnc2c1NC(=O)c1cccnc1N2C1CC1 [NEVIRAPINE] |  |  |  |  |  |  |  |  |  |  |  |  |  |  |  |  | 35 |  |
| O=C1Nc2ccc(Cl)cc2[C@@](C#CC2CC2)(C(F)(F)F)O1 [EFAVIRENZ] |  |  |  |  |  |  |  |  |  |  |  |  |  |  |  |  |  | 51 |
| Cc1c(C(C)c2c(F)cccc2F)nc(N(C)C)[nH]c1=O (centres undefined) | 96.3 | 0.8 | 96 | 42 | 8.4 | 30 | 86 | 91 | 97.4 | 1.8 | 2.6 | 2.3 | 0.9 | 89 | 1 | 3.1 |  |  |
